This note sets out measurements from patent publication US8119686B2, “Spiroquinone compound and pharmaceutical composition” (Hykes Laboratories LLC, priority 2006, dated 2012).

Molecules are shown by their SMILES.

What all share (assay type): cell-based, human
For assay [1], the system named is THP-1 cells. Briefly: Acceleration of HDL production reaction (apoA-I-dependent cholesterol release into culture medium). Conditions: for apoA-1-dependent HDL cholesterol release, increase as compared with probucol spiroquinone: THP-1 cells, fold versus cells treated with probucol spiroquinone; for HDL cholesterol release (relative ratio %): THP-1 macrophages, culture medium after 24 h culture, apoA-I-dependent, relative to cells treated with probucol spiroquinone (=100). The method, then:
The culture medium after 24-hour culture in the presence or absence of apoAI in Test Example 1 was used to examine cholesterol release into the culture medium by the apoA-1-dependent HDL-generating reaction.
Specifically, the culture medium was collected in a 1.5 ml tube and centrifuged at 316,000×g for 5 minutes, and the supernatant was transferred in a glass tube. To the supernatant was added a mixture of chloroform and methanol (volume ratio=2/1) (manufactured by Wako Pure Chemical Industries, Ltd.). The resulting mixture was stirred and further centrifuged at 1,300×g for 5 minutes. After the centrifugation, the resulting water layer was removed. Water was added to the remaining organic layer, and the mixture was stirred again and centrifuged at 1,300×g for 5 minutes. After the centrifugation, the resulting water layer was removed. The organic layer was evaporated to dryness, and cholesterol remaining in the glass tube was quantitatively determined according to an enzymatic method. The relative ratio (%) of the amount of cholesterol release as HDL from the cells treated with the spiroquinone derivative to that from the cells treated with probucol spiroquinone was calculated to evaluate the HDL cholesterol release from the cells treated with the test compounds.

Assay [2] has as its system ABCA1 mRNA. Briefly: mRNA expression of intracellular ABCA1 (Real Time PCR). Conditions: for mRNA Expression level of ABCA1 (relative ratio %): THP-1 macrophages, standardized to GAPDH mRNA, relative to untreated cells (=100). The method, then: The cells washed with PBS in Test Example 1 were used. From the cells, RNA was extracted with ISOGEN (manufactured by Wako Pure Chemical Industries, Ltd.). By using a Super Script First-Strand Synthesis System for RT-PCR (manufactured by Invitrogen) cDNA was prepared, and the mRNA expression of ABCA1 was assayed by Real Time PCR using ABCA1 specific primer and Power SYBR Green PCR Master Mix (manufactured by Applied Biosystems).
Moreover, the mRNA expression of GAPDH as an internal control was also assayed simultaneously. The mRNA expression level of ABCA1 was standardized as a ratio (%) relative to the mRNA expression level of GAPDH. The mRNA expression level of ABCA1 in the cells treated with the test compound relative to that in untreated cells was calculated and evaluated.

Assay [3] concerns ABCA1. Briefly: Increase of ABCA1 in THP-1 cell (membrane fraction, SDS-PAGE and immunoblotting). Conditions: PMA-differentiated THP-1 macrophages, 24 h culture with compound; relative to cells treated with probucol spiroquinone (=100). Here is the method:
THP-1 cells (human leukemia cell; manufactured by American Type Culture Collection) were cultured for 24 hours in 10% FBS-RPMI1640 culture medium (manufactured by Sigma) in the presence of PMA (phorbol myristate acetate; 3.2×10^−7 M; manufactured by Wako Pure Chemical Industries, Ltd.) to obtain differentiated macrophages. The resulting cells were washed with RPMI1640 (manufactured by Sigma) and then added to RPMI1640 culture medium (manufactured by Sigma) with BSA (manufactured by Sigma) having a concentration of 0.2%. The spiroquinone derivatives obtained in Examples 1, 6 and 10 was independently added to the culture medium. Each sample was cultured for 24 hours in the presence or absence of apoAI, and then the ABCA1 expression in the cells was assayed in accordance with the following method. Incidentally, the spiroquinone derivative was dissolved in 2-butabol, and the solution was added to the culture medium so that the final concentration of the spiroquinone derivative was 0.5%.
The cells were washed with PBS (phosphate buffered saline; manufactured by Sigma). The washed cells were collected in 0.5 mM Tris-HCl (pH 8.5) containing a protease inhibitor (manufactured by Sigma), stirred, and allowed to stand on ice for 15 minutes. The resulting cell suspension was centrifuged at 470×g for 5 minutes to precipitate nuclear fractions. Thereafter, the supernatant was centrifuged at 316,000×g for 30 minutes to precipitate membrane fractions. The membrane fractions (15 μg protein) were used to conduct SDS-PAGE and Immunoblotting. The obtained band of the ABCA1 protein was converted into digital data by using an image analysis software (manufactured by […], Photoshop). The relative ratio (%) of the ABCA1 expression level of the cells treated with the spiroquinone derivative to that of the cells treated with probucol spiroquinone was calculated to evaluate the ABCA1 expression activity of the test compounds.

`CCCC1(C)SC2(C=C(C(C)(C)C)C(=O)C(C(C)(C)C)=C2)C2(C=C(C(C)(C)C)C(=O)C(C(C)(C)C)=C2)S1` [Example 6, 14-methyl-2,4,9,11-tetrakis(t-butyl)-14-n-propyl-13,15-dithiadispiro[5.0.5.3]pentadeca-1,4,8,11-tetraene-3,10-dione]: in assay [1], the “apoA-1-dependent HDL cholesterol release, increase as compared with probucol spiroquinone” value is given as “about 1.3 times” and the “HDL cholesterol release (relative ratio %)” value came to 134%. Moreover, in assay [2] (THP-1 cells), the “mRNA expression of ABCA1 in treated THP-1 cells (in words)” value was “not found”. Besides, the “mRNA Expression level of ABCA1 (relative ratio %)” value in assay [2] was determined as 51%. Besides, in assay [3], the “ABCA1 expression level (relative ratio %)” value is 176%.
As for `CC1(C)SC2(C=C(C(C)(C)C)C(=O)C(C(C)(C)C)=C2)C2(C=C(C(C)(C)C)C(=O)C(C(C)(C)C)=C2)S1` [Probucol spiroquinone, reference compound], in assay [1], the “HDL cholesterol release (relative ratio %)” value came to 100%. For the same compound, in assay [2], the “mRNA Expression level of ABCA1 (relative ratio %)” value turned out to be 65%. Further, in assay [3], the “ABCA1 expression level (relative ratio %)” value was determined as 100%.
As for `CC(C)(C)C1=CC2(C=C(C(C)(C)C)C1=O)SC1(CCCC1)SC21C=C(C(C)(C)C)C(=O)C(C(C)(C)C)=C1` [Example 10, 9,11,15,17-tetrakis(t-butyl)-6,19-dithiadispiro[4.1.5^7.0.5^13.1^5]nonadeca-8,11,14,17-tetraene-10,16-dione], in assay [1], the “apoA-1-dependent HDL cholesterol release, increase as compared with probucol spiroquinone” value is “about 1.3 times” and the “HDL cholesterol release (relative ratio %)” value is 128%. In addition, the “ABCA1 expression level (relative ratio %)” value in assay [3] is given as 309%.
Turning to `CC1(CCC(=O)O)SC2(C=C(C(C)(C)C)C(=O)C(C(C)(C)C)=C2)C2(C=C(C(C)(C)C)C(=O)C(C(C)(C)C)=C2)S1` [Example 1, 14-carboxyethyl-14-methyl-2,4,9,11-tetrakis(t-butyl)-13,15-dithiadispiro[5.0.5.3]pentadeca-1,4,8,11-tetraene-3,10-dione], the “ABCA1 expression level (relative ratio %)” value in assay [3] is 238%.
